This note sets out measurements from BindingDB's records for doi:10.1021/jm980094b (National Institute of Diabetes, 1998).

This assay deals with Adenosine receptor A2a (Rattus norvegicus, UniProt P30543). Put plainly: Binding affinity was determined in radioligand binding assay at rat striatal Adenosine A2A receptor vs [3H]-CGS- 21680.
Sequence of Adenosine receptor A2a (P30543 whole entry): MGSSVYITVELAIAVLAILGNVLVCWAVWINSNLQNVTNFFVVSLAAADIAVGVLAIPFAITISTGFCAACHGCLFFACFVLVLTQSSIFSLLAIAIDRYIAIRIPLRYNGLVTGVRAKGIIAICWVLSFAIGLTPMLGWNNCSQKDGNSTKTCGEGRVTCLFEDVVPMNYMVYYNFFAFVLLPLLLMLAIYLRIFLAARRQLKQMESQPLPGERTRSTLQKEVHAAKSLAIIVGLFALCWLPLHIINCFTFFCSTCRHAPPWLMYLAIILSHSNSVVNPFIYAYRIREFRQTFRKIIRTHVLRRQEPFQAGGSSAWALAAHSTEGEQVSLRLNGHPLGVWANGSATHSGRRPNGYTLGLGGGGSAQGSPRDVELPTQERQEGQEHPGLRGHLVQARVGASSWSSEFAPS

For the compound `CCOC(=O)C1C(C)=NC(c2ccccc2)=C(C(=O)OCc2ccccc2)C1C#Cc1ccccc1` (stereo unspecified) [CAS_393594], the Ki is above 100 nM.

A word on the Ki: it is the equilibrium dissociation constant of an inhibitor or competing ligand from its target.
